Paper PMC11546719, “Immune Modulatory Profile of the Pateamines PatA and Des-Methyl Des-Amino PatA” (International Journal of Molecular Sciences, 2024)

Assays:
[1] = system: B cells; assay: Energy metabolism (Seahorse OCR/ECAR) in B cells; assay type: cell-based, human; conditions: 5 days, PatA, DMDA 0.25-0.5 nM, silvestrol 5 nM, rapamycin 10 ng/mL
Procedure: (§1) The determination of the energy metabolism was performed as described previously. Briefly, for the analysis of the extracellular acidification rate (ECAR) and the oxygen consumption rate (OCR) for human B cells, Tcells, M1 MdMs and M2 MdMs, the Seahorse XFe96 FluxPak (Agilent, Waldbronn, Germany) was used as recommended by the manufacturer. MdMs were polarized to M1 or M2 MdMs in the presence of PatA (0.5, 2.5, 5 nM), DMDA (0.5, 2.5, 5 nM) or vehicle (DMSO) for 48 h or 24 h, respectively. T cells were activated in the presence of PatA (0.25, 0.5 nM), DMDA (0.25, 0.5 nM), silvestrol or DMSO. B cells were activated in the presence of PatA (0.25, 0.5 nM), DMDA (0.25, 0.5 nM), silvestrol (5 nM) or rapamycin (10 ng/mL positive control). Cells were washed with Seahorse XF RPMI medium pH 7.4 (Agilent, Waldbronn, Germany) and OCR and ECAR were measured as octuplicates for a period of 160 min using the Seahorse XFe96 Analyzer (Agilent, Waldbronn, Germany) and analyzed by Wave Software 2.6.3.8 (Agilent, Waldbronn, Germany). The relative values were calculated by relating the OCR or ECAR values obtained after 50 min to the values of the vehicle control (not stimulated).

[2] = system: M2 MdMs; assay: Energy metabolism (Seahorse OCR/ECAR) in M2 MdMs; assay type: cell-based, human; conditions: 24 h, 0.5-5 nM
Procedure: as §1

[3] = Transport assay, porous membrane without cell barrier; assay type: in vitro ADME; conditions: 100 nM; for Transport rate without a cell barrier: apical to basolateral
[4] = system: Calu-3 cell barrier; assay: Transport assay, Calu-3 cell barrier; assay type: in vitro ADME; conditions: for Permeability / transport rate across Calu-3 cell barrier (in words): 4 and 24 h, PatA, DMDA 5, 50, 100 nM, controls 200 µM
Procedure: The transport assay was achieved as described previously. Briefly, 1 × 10^5 CaCo-2 or 5 × 10^4 Calu-3 cells in 300 µL medium were seeded on 24-well ThinCerts (pre-coated with FCS for 60 min) and in the lower compartment, 1 mL culture medium per well was added. The Caco-2 cell barrier was generated over 20 days and the Calu-3 barrier was generated over 14 days. DMDA (0 nM, 5 nM, 50 nM, 100 nM), PatA (0 nM, 5 nM, 50 nM, 100 nM), 200 µM famotidine, 200 µM lucifer yellow or 200 µM carbamazepine diluted in medium was added to the apical compartment and incubated for 4 h or 24 h. The medium from the basolateral and apical compartment was collected and stored at −20 °C and analyzed using LC-MS/MS. To obtain the transport rate, the drug amount in the basolateral compartment at 4 h or 24 h was related to the drug amount in the apical compartment (0 h).
The detailed method for the analysis of DMDA, PatA, carbamazepine and famotidine using LC-MS/MS is described in the Supplementary Materials.

[5] = system: M1 MdMs; assay: Polarization of MdMs to M1 MdMs (zombie staining, flow cytometry, ELISA/CBA); assay type: cell-based, human; conditions: for Surface marker expression (CD86, CD80, TREM2, HLA-DR, CD206, CD14, CD163) / Apoptosis (zombie staining) / Inflammatory environment: release of cytokines (IL-6, IL-8, CCL2, CCL17, CL18, IFN-γ) and PGE2: M1 MdMs; for Surface marker expression (CD86, CD80, TREM2, HLA-DR, CD206, CD14, CD163) / Apoptosis (zombie staining): 48 h; for Surface marker expression (CD86, CD80, TREM2, HLA-DR, CD206, CD14, CD163): flow cytometry; for Apoptosis (zombie staining): IFN-γ polarization, 0.5-5 nM; for Inflammatory environment: release of cytokines (IL-6, IL-8, CCL2, CCL17, CL18, IFN-γ) and PGE2: supernatant, ELISA or CBA; for Effect on the release of inflammatory markers, M1 MdM: summary table
Procedure: The differentiation of human monocytes to macrophages (MdMs) was performed as previously described. Briefly, 0.5 × 10^6 CD14^+ cells/well were pretreated with different concentrations of PatA and DMDA or vehicle (DMSO) for 30 min. After pre-incubation, differentiation was initiated by the addition of 10 ng/mL GM-CSF for M1 MdMs or 50 ng/mL M-CSF for M2 MdMs and incubated for 7 days.
The polarization of MdMs to M1 or M2 MdMs was performed as previously described. M1 and M2 MdM polarization was conducted in separate experiments. Briefly, M1 MdMs were polarized in presence of PatA (0.5, 2.5, 5 nM), DMDA (0.5, 2.5, 5 nM) or vehicle (DMSO) with 20 ng/mL human IFN-γ for 48 h. M2 MdMs were polarized in presence of PatA (0.5, 2.5, 5 nM), DMDA (0.5, 2.5, 5 nM) or vehicle (DMSO) with 10 ng/mL human IL-4 for 24 h.
Surface marker analysis was performed as described previously. Briefly, 1.5–2 × 10^5 cells of each sample were blocked with human FcR Blocking Reagent (15 min, 4 °C). A Zombie Aqua™ Fixable Viability Kit (1:500 dilution, BioLegend, San Diego, CA, USA) was used according to the manufactory protocol to discriminate living and dead cells. Afterwards, samples were stained with a mixture of different surface marker antibodies (15 min, 4 °C) and measured with MACSQuant® Analyzer 10 flow cytometer. For M1-/M2-MdMs anti-CD86, anti-CD14, anti-HLA-DR, anti-CD206, anti-CD80, anti-TREM2 and anti-CD163 were used. For T cells, anti-CD69, anti-CD54, anti-CD49a, anti-CD18, anti-CD134, anti-CD154, anti-CD3 and anti-CD25 were analyzed. For B cells, anti-CD27, anti-CD19 and anti-CD38 were applied. For T cell and B cell proliferation assay, freshly isolated T and B cells were stained with CTV and detected using flow cytometry. Naïve B cells were characterized as CD19^+CD27^lowCD38^med, memory B cells as CD19^+CD27^med CD38^low and plasma cells as CD27^+CD38^+ cells. M1 MdMs and M2 MdMs cell population was gated using FSC/SSC channel. T cells were gated as CD3^+CD25^+ positive cells. The geometric mean of the fluorescent intensity was calculated using FlowJo software v10 (Treestar, Ashland, […], USA). Fold induction of surface marker expression was calculated using the DMSO-treated cells as the control.
For determination of cytokine concentrations in the supernatant of humane immune cells, cytometric bead array (BD Biosciences, Heidelberg, Germany) for IL-10, IL-17, IL-8, IL-6, IFN-γ and CCL2 was used. For the detection of CCL18, CCL17, IgG, IgA and PGE2, an ELISA was performed. The cytometric bead arrays and the ELISAs were performed according to the protocol of the supplier.

| Compound | Energy metabolism: glycolysis (ECAR) and oxidative phosphorylation (OCR) [1] | Energy metabolism: glycolysis (ECAR) and oxidative phosphorylation (OCR) [2] | Transport rate without a cell barrier ([3]; 4 h) | Transport rate without a cell barrier ([3]; 24 h) [%] | Transport rate with Calu-3 cell barrier ([4]; 100 nM, 24 h) [%] | Permeability / transport rate across Calu-3 cell barrier (in words) [4] | Surface marker expression (CD86, CD80, TREM2, HLA-DR, CD206, CD14, CD163) [5] | Apoptosis (zombie staining) [5] | Inflammatory environment: release of cytokines (IL-6, IL-8, CCL2, CCL17, CL18, IFN-γ) and PGE2 [5] | Effect on the release of inflammatory markers, M1 MdM [5] | Stability in the media under transport assay conditions ([3]; inferred from transport without cell barrier) |
| --- | --- | --- | --- | --- | --- | --- | --- | --- | --- | --- | --- |
| CC(/C=C/C(C)=C/[C@@H]1Cc2nc(cs2)CCCCC(=O)O[C@@H](C)C/C(C)=C/C=C\C(=O)O1)=C\CN(C)C [DMDA, des-methyl des-amino pateamine A] | induced only glycolysis | had no effect on energy consumption | about 28% | ~41 | ~14 | exhibited low permeability | only reduced CD14 expression | Neither PatA nor DMDA induced apoptosis | did not affect the inflammatory environment | No effect | – |
| CC(/C=C/C(C)=C/[C@@H]1Cc2nc(cs2)[C@@H](C)C[C@@H](N)CC(=O)O[C@@H](C)C/C(C)=C/C=C\C(=O)O1)=C\CN(C)C [PatA, pateamine A] | induced oxidative phosphorylation and glycolysis | reduced glycolysis and oxidative phosphorylation | about 28% | – | – | no permeability was detected | no significant effect on surface marker expression | Neither PatA nor DMDA induced apoptosis | did not affect the inflammatory environment | No effect | probably unstable in the media |
